From patent EP4417602A1, “SUBSTITUTED PYRAZOLE CARBOXAMIDES, SALTS THEREOF AND THEIR USE AS HERBICIDALLY ACTIVE SUBSTANCES” (Bayer AG, priority 2023, dated 2024)

Experiments:
ECHCG [1] = assay: C. Herbicidal pre-emergence action, weed and crop plants (Tables C); type: in vivo, Echinochloa crus-galli
Source text: (§1) Seeds of mono- and dicotyledonous weed plants and crop plants were sown, in plastic or organic planting pots, in sandy loam and covered with soil. The compounds according to the invention, formulated in the form of wettable powders (WP) or as emulsifiable concentrates (EC), were applied to the surface of the covering soil as aqueous suspension or emulsion, with the addition of 0.5% of an additive, at an application rate of 6001 of water/ha (converted). Following treatment, the pots were placed in a greenhouse and kept under optimum growth conditions for the test plants. The visual grading of the damage to the test plants was carried out after ca. 3 weeks in comparison to untreated controls (herbicidal effect in percent (%): 100% effect = plants have died off, 0% effect = as control plants). Tables C1 to C12 below show the effects of selected compounds of the general formula (I) according to table 1 on various harmful plants and an application rate corresponding to 320 g/ha or below obtained by the experimental procedure mentioned above. Table C1: pre-emergence activity at 320g/ha against KCHSC in %

ALOMY [2] = assay: as above; type: in vivo, Alopecurus myosuroides
Source text: as §1

ECHCG [3] = assay: A. Herbicidal pre-emergence action on harmful plants (Tables A); type: in vivo, Echinochloa crus-galli; settings: visual grading after ca. 3 weeks vs untreated controls, 100% = plants have died off, 0% = as control plants
Summary of the method: (§2)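 Values are visual percent damage relative to untreated controls, scored ca. 3 weeks after the compound was sprayed on the covering soil of sown pots (sandy loam) at rates up to 1280 g/ha, formulated as WP or EC with 0.5% additive.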

STEME = assay: as above; type: in vivo, Stellaria media; settings: visual grading after ca. 3 weeks vs untreated controls, 100% = plants have died off, 0% = as control plants
Summary of the method: as §2

DIGSA [4] = assay: C. Herbicidal pre-emergence action, weed and crop plants (Tables C); type: in vivo, Digitaria sanguinalis
Source text: as §1

POAAN = assay: B. Herbicidal post-emergence action on harmful plants (Tables B); type: in vivo, Poa annua
Summary of the method: (§3)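 Greenhouse weeds grown in sandy loam were sprayed post-emergence at the one-leaf stage, 2-3 weeks after sowing. Compounds were applied as WP or EC in water with 0.5% additive at 600 L/ha, at 1280 g/ha or below. Visual damage was rated after about 3 weeks versus untreated plants (0-100%).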

VIOTR = assay: C. Herbicidal pre-emergence action, weed and crop plants (Tables C); type: in vivo, Viola tricolor
Summary of the method: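 Seeds were sown in sandy loam and covered with soil. WP or EC formulations were sprayed onto the soil surface as aqueous suspension or emulsion with 0.5% additive, at rates of 320 g/ha or below. Plants were kept in a greenhouse, and damage was scored visually after about 3 weeks as % effect versus untreated controls (100% = dead, 0% = like control).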

LOLRI = assay: A. Herbicidal pre-emergence action on harmful plants (Tables A); type: in vivo, Lolium rigidum; settings: visual grading after ca. 3 weeks vs untreated controls, 100% = plants have died off, 0% = as control plants
Summary of the method: as §2

SETVI = assay: as above; type: in vivo, Setaria viridis; settings: visual grading after ca. 3 weeks vs untreated controls, 100% = plants have died off, 0% = as control plants
Summary of the method: as §2

BRSNW = assay: D. Pre-emergence effects on crop plants (Tables D); type: in vivo, Brassica napus; settings: crop plant
Summary of the method: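 Seeds sown in sandy loam and covered; WP or EC formulations sprayed onto the soil surface as aqueous suspension/emulsion with 0.5% additive, at 320 g/ha or below. Greenhouse-grown; visual damage scored after ca. 3 weeks against untreated controls (0% = as control, 100% = plants dead).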

ALOMY [5] = assay: A. Herbicidal pre-emergence action on harmful plants (Tables A); type: in vivo, Alopecurus myosuroides
Summary of the method: as §2

DIGSA [6] = assay: as above; type: in vivo, Digitaria sanguinalis
Summary of the method: as §2

DIGSA [7] = assay: B. Herbicidal post-emergence action on harmful plants (Tables B); type: in vivo, Digitaria sanguinalis; settings: application rate 1280 g/ha; Table B12a
Summary of the method: as §3

[8] = application rate 320 g/ha, Table C6a
[9] = application rate 320 g/ha, Table C2a
[10] = application rate 80 g/ha, Table C5b
[11] = application rate 320 g/ha, Table C5a
[12] = application rate 1280 g/ha, Table B7a
[13] = application rate 320 g/ha, Table C12a
[14] = application rate 320 g/ha, Table A9b
[15] = application rate 1280 g/ha, Table A9a
[16] = application rate 320 g/ha, Table A12b
[17] = application rate 1280 g/ha, Table A12a
[18] = application rate 80 g/ha, Table C12b
[19] = application rate 80 g/ha, Table C6b
[20] = application rate 80 g/ha, Table C2b

| SMILES | pre-emergence activity against ECHCG (ECHCG [1]; [8]) [%] | pre-emergence activity against ALOMY (ALOMY [2]; [9]) [%] | pre-emergence activity against ECHCG (ECHCG [3]; application rate 80 g/ha) [%] | pre-emergence activity against ECHCG (ECHCG [3]; application rate 320 g/ha) [%] | pre-emergence activity against ECHCG (ECHCG [3]; application rate 1280 g/ha) [%] | pre-emergence activity against STEME (STEME; application rate 1280 g/ha) [%] | pre-emergence activity against DIGSA (DIGSA [4]; [10]) [%] | pre-emergence activity against DIGSA (DIGSA [4]; [11]) [%] | post-emergence activity against POAAN (POAAN; [12]) [%] | pre-emergence activity against VIOTR (VIOTR; [13]) [%] | pre-emergence activity against LOLRI (LOLRI; application rate 320 g/ha) [%] | pre-emergence activity against LOLRI (LOLRI; application rate 1280 g/ha) [%] | pre-emergence activity against SETVI (SETVI; application rate 320 g/ha) [%] | pre-emergence activity against SETVI (SETVI; application rate 1280 g/ha) [%] | pre-emergence activity against BRSNW in % (BRSNW; application rate 80 g/ha) [%] | pre-emergence activity against BRSNW in % (BRSNW; application rate 320 g/ha) [%] | pre-emergence activity against ALOMY (ALOMY [5]; [15]) [%] | pre-emergence activity against DIGSA (DIGSA [6]; [16]) [%] | pre-emergence activity against DIGSA (DIGSA [6]; [17]) [%] | pre-emergence activity against STEME (STEME; application rate 320 g/ha) [%] | other results |
| --- | --- | --- | --- | --- | --- | --- | --- | --- | --- | --- | --- | --- | --- | --- | --- | --- | --- | --- | --- | --- | --- |
| COCc1nn(C)cc1C(=O)N1CCCC1Cc1ccccc1F (racemic) [Example I-002] | 90 | 90 | 90 | 100 | 100 | 90 | 90 | 90 | 90 | 80 | 90 | 100 | 90 | 90 | 0 | 0 |  |  |  |  | pre-emergence activity against LOLRI (LOLRI; application rate 80 g/ha): 90% |
| COCc1nn2c(c1C(=O)N1CCCC1Cc1ccccc1F)CCC2 (racemic) [Example I-022] | 90 |  |  | 90 | 100 |  |  | 90 | 90 | 80 | 100 | 100 | 90 | 90 | 0 | 0 | 90 | 90 | 90 |  | pre-emergence activity against ALOMY (ALOMY [5]; [14]): 90% |
| C=C(c1ccccc1F)C1CCCN1C(=O)c1cn(C)nc1COC (racemic) [Example I-023] | 90 | 100 |  | 90 | 100 | 90 | 90 | 100 | 90 | 80 | 100 | 100 | 90 | 90 | 0 | 0 | 90 | 90 | 90 | 90 | post-emergence activity against DIGSA (DIGSA [7]): 90%; pre-emergence activity against VIOTR (VIOTR; [18]): 80% |
| COCc1nn(C(=O)OC(C)(C)C)cc1C(=O)N1CCCC1Cc1ccccc1F (racemic) [Example I-040] | 90 | 80 |  | 90 | 100 | 90 | 80 | 90 |  |  | 90 | 100 | 90 | 90 | 0 | 0 | 90 | 90 | 100 | 90 | pre-emergence activity against ECHCG (ECHCG [1]; [19]): 80% |
| CNC(=O)n1cc(C(=O)N2CCCC2Cc2ccccc2F)c(COC)n1 (racemic) [Example I-051] | 100 | 90 | 90 | 90 | 90 | 90 | 90 | 100 | 90 | 80 | 100 | 100 | 90 | 90 | 0 | 0 | 90 | 90 | 90 | 90 | pre-emergence activity against ECHCG (ECHCG [1]; [19]): 100%; pre-emergence activity against ALOMY (ALOMY [2]; [20]): 80%; pre-emergence activity against VIOTR (VIOTR; [18]): 80%; pre-emergence activity against LOLRI (LOLRI; application rate 80 g/ha): 100%; pre-emergence activity against ALOMY (ALOMY [5]; [14]): 90% |
| COCc1nn(C)cc1C(=O)N1CCCC1C(O)c1ccccc1F (single isomer, unassigned) [Example I-053] | 100 | 90 |  | 90 | 90 | 90 | 80 | 90 |  |  | 90 | 90 | 90 | 90 | 10 |  |  | 90 | 90 | 90 | pre-emergence activity against ECHCG (ECHCG [1]; [19]): 90%; pre-emergence activity against ALOMY (ALOMY [2]; [20]): 80% |
| COCc1c(C(=O)N2CCCC2Cc2ccccc2F)cnn1C (single isomer, unassigned) [Example I-157] | 80 | 90 | 100 | 100 | 100 | 100 |  | 90 | 100 | 90 | 90 | 90 | 90 | 90 | 0 | 0 | 100 | 100 | 100 | 90 | post-emergence activity against POAAN (POAAN; application rate 320 g/ha, Table B7b): 100%; pre-emergence activity against ALOMY (ALOMY [5]; [14]): 100%; pre-emergence activity against DIGSA (DIGSA [6]; application rate 80 g/ha, Table A12c): 100% |
